In patent US20250281516A1, “NUTRACEUTICAL FORMULATION FOR POLYCYSTIC OVARY SYNDROME” (priority 2019, published 2025):

Legend:
PCOS symptoms = assay: Physician's further feedback in general on PCOS symptom control; design: species or system women; settings: in vivo
patients (ovulation) = settings: inositol alone administered; cited from earlier work
infertile PCOS women = settings: inositol and folic acid administered; cited from earlier work

O[C@H]1[C@H](O)[C@@H](O)[C@H](O)[C@@H](O)[C@H]1O [inositol]
effectiveness compared with the combination formulation (PCOS symptoms): not as effective | patients showing improvement in ovulation (patients (ovulation)): about 62% | restoration of ovulation (infertile PCOS women): about 70%

O[C@H]1[C@H](O)[C@@H](O)[C@H](O)[C@@H](O)[C@H]1O [myo-inositol]
duration of treatment after which most PCOS symptoms were controlled (PCOS symptoms): > 6 month
